Source: US20230108125A1, “SMALL MOLECULE COMPOUNDS” (Apertor Pharmaceuticals, Inc., priority 2021, published 2023)

Each molecule was assayed on Saccharomyces cerevisiae BY4742 (assay: Anti-yeast activity assay (minimum inhibitory concentration)). Conditions: YPD media, 30° C., 16 hours, lowest concentration with no obvious culture growth, triplicate, read-out: MIC against Saccharomyces cerevisiae BY4742.
Type: cell-based
Procedure: A single colony of Saccharomyces cerevisiae BY4742 was inoculated into 2 mL YPD media in a 5 mL falcon tube to grow overnight at 30° C. The overnight culture was inoculated into 5 mL YPD media in a glass tube at OD600=0.1, and the new culture was grown at 30° C. until OD600 reached 0.5. The culture was then diluted to OD600=0.01 and aliquoted into 96-well plates at 100 μL per well. The compound was dissolved in ethanol at 75 μM. Three-fold serial dilutions were conducted for the Compound 10 times using ethanol, respectively. 4 μL of each concentration compound solution was added and mixed with 384 μL YPD media. 100 μL of the YPD media solutions were mixed with the Saccharomyces cerevisiae cultures in 96-well plates by pipette, respectively. The plates were incubated at 30° C. for 16 hours without shaking. The lowest Compound concentrations in wells that have no obvious culture growth were defined as the minimum inhibitory concentrations (MICs). The assays were conducted in triplicate.

Compound | MIC [µM]
CO[C@H]1C[C@@H]2CC[C@@H](C)[C@@](O)(O2)C(=O)C(=O)N2CCCC[C@H]2C(=O)O[C@H]([C@H](C)C[C@@H]2CC[C@@H](O)[C@H](OC)C2)CC(=O)C/C=C(\C)[C@@H](O)[C@@H](OC)C(=O)[C@H](C)C[C@H](C)/C=C/C=C/C=C/1C [Compound 10, (3S,7E,9R,10R,12R,14S,15E,17E,19E,21S,23S,26R,27R,34aS)-9,27-dihydroxy-3-((R)-1-((1S,3R,4R)-4-hydroxy-3-methoxycyclohexyl)propan-2-yl)-10,21-dimethoxy-8,12,14,20,26-pentamethyl-9,10,12,13,14,21,22,23,24,25,26,27,32,33,34,34a-hexadecahydro-3H-23,27-epoxypyrido[2,1-c][1]oxa[4]azacyclohentriacontine-1,5,11,28,29(4H,6H,31H)-pentaone] | < 0.0556
CO[C@H]1C[C@@H]2CCC[C@@](O)(O2)C(=O)C(=O)N2CCCC[C@H]2C(=O)O[C@H]([C@H](C)C[C@@H]2CC[C@@H](O)[C@H](OC)C2)CC(=O)[C@H](C)/C=C(\C)[C@@H](O)[C@@H](OC)C(=O)[C@H](C)C[C@H](C)/C=C/C=C/C=C/1C [Compound 12, (3S,6R,7E,9R,10R,12R,14S,15E,17E,19E,21S,23S,27R,34aS)-9,27-dihydroxy-3-((R)-1-((1S,3R,4R)-4-hydroxy-3-methoxycyclohexyl)propan-2-yl)-10,21-dimethoxy-6,8,12,14,20-pentamethyl-9,10,12,13,14,21,22,23,24,25,26,27,32,33,34,34a-hexadecahydro-3H-23,27-epoxypyrido[2,1-c][1]oxa[4]azacyclohentriacontine-1,5,11,28,29(4H,6H,31H)-pentaone] | < 0.0556
CO[C@@H]1/C(C)=C/C=C/C=C/[C@@H](C)C[C@@H](C)C(=O)[C@H](OC)[C@H](O)/C(C)=C/[C@@H](C)C(=O)C[C@@H]([C@H](C)C[C@@H]2CC[C@@H](O)[C@H](OC)C2)OC(=O)[C@@H]2CCCCN2C(=O)C(=O)[C@]2(O)O[C@@H](CC[C@H]2C)[C@@H]1C [Compound 15, (3S,6R,7E,9R,10R,12R,14S,15E,17E,19E,21S,22S,23S,26R,27R,34aS)-9,27-dihydroxy-3-((R)-1-((1S,3R,4R)-4-hydroxy-3-methoxycyclohexyl)propan-2-yl)-10,21-dimethoxy-6,8,12,14,20,22,26-heptamethyl-9,10,12,13,14,21,22,23,24,25,26,27,32,33,34,34a-hexadecahydro-3H-23,27-epoxypyrido[2,1-c][1]oxa[4]azacyclohentriacontine-1,5,11,28,29(4H,6H,31H)-pentaone] | < 0.0556
